Values joined by “and” are separate entries in the source; they are usually repeats but may differ in a detail not shown here. Equal values may be shown once. Marks after values point to notes of the source that are not given here.
What was measured:
[1] = system: FITC-induced mouse atopic dermatitis model; assay: FITC-induced mouse atopic dermatitis model: change in ear thickness; assay type: in vivo, Balb/c mice; details: 20 mg/dose topical twice a day; for Ear thickness Day 5 / Ear thickness Day 6 / Ear thickness Day 12 / Ear thickness Day 13 / ΔEar thickness Day 6-Day 5 / ΔEar thickness Day 13-Day 5: right ear; for Inhibitory rate% (Day 13): Δ ear thickness vs model group
Source text: • 1) Animals: female Balb/c mice, specific pathogen-free (SPF), aged 6-7 weeks at grouping, with 10 mice per group. The animals were provided by Shanghai Jihui Laboratory Animal Care Co., Ltd. • 2) Reagents, positive drugs and test drugs
FITC induction method: experimental animals were subjected to examination in an adaptation period and weight screening after examined to be qualified. The animals were randomly divided into 6 experimental groups according to the weight, including a normal group, a model group, a clobetasol propionate ointment group, a 0.5% Compound I group, a 1% Compound I group and a 2% Compound I group, with 10 mice in each group. On day 0 and day 1, after all the experimental animals were administered for 2 hours, the animals were anesthetized with zoletil (25 mg/kg) and xylazine (5 mg/kg), and then subjected to sensitization operation at the abdomen (a sensitized part). The abdominal part of the experimental animal at about 3×4 cm was depilated before sensitization, and then 0.5% FITC (dissolved in dibutyl phthalate/acetone solution) was applied to the alopecic areas of the abdomens of the experimental animals in model group for sensitization. An equal volume of dibutyl phthalate/acetone was given to the alopecic areas of the abdomens of the experimental animals in the normal-blank gel group.
On day 5 and day 12, all the experimental animals were anesthetized with 1-4% isoflurane (all subsequent measurements on ear thickness were performed under anesthesia with isoflurane), and the thickness of the right-side ear margins of the experimental animals was measured as a baseline. On day 5 and day 12, 0.5% FITC was applied to both the inner and outer sides of the right ears of the experimental animals in model group for challenge treatment. An equal volume of dibutyl phthalate/acetone solution was given to the experimental animals in the normal-blank gel group.
On day 6 and day 13, 24 hours after each FITC challenge, the thickness of the right-side ear margins of all the experimental animals was measured. Ear swelling response was determined by the change in the ear thickness before and after FITC challenge measured with a digital display thickness gauge, the measurement positions were basically kept constant, and the mean change in the ear thickness (ΔT±S.E.M.) was recorded for each group.

[2] = system: monobenzone-induced mouse vitiligo model; assay: Monobenzone-induced mouse vitiligo model: skin pathological analysis of melanin-containing hair follicles; assay type: in vivo, C57BL/6 mice; details: for Number of melanin-containing hair follicles / Proportion of melanin-containing hair follicles (%): 30 mg topical twice a day for 50 days
Experimental: The mice were euthanized within 2-4 hours after the last administration, and approximately 1 cm^2 of the skin in the center of the depilated part of the mice was taken and fixed with 4% paraformaldehyde. The animal skin tissues were fixed with 4% paraformaldehyde, dehydrated, embedded with paraffin, sectioned and then subjected to HE staining. The stained sections were photographed by white light panoramic scanning, histopathological changes of the skin tissues and inflammatory cell infiltration were observed, and the number of melanin-containing hair follicles and/or the proportion of the melanin-containing hair follicles in the skin were quantitatively analyzed. The panoramic scanning files were opened by using CaseViewer software, a picture view with the length of about 3.8 mm was randomly selected, and the pictures were saved. The number of all the hair follicles and the number of the melanin-containing hair follicles in the picture were counted respectively by using ipwin32 software. The proportion of the melanin-containing hair follicles was calculated according to the following formula: Proportion of melanin-containing hair follicles = number of melanin-containing follicles/number of all follicles

[3] = system: imiquimod-induced C3H/HeJ mice alopecia areata model; assay: Imiquimod-induced mouse alopecia areata model: hair growth; assay type: in vivo; details: for Hair growth rate (%): listed as test drug
Experimental: • 1) Animals: female C3H/He mice, SPF, aged 6-8 weeks at grouping. The animals were provided by Beijing Viewsolid Biotech. • 2) Reagents, positive drugs and test drugs
After one week of adaptive feeding of C3H/HeJ mice: modeling was performed by applying imiquimod ointment to the neck, 3 times a week. The mice were carefully taken out, and about 0.05 g of 5% imiquimod ointment was dipped with a clean medical cotton swab and then applied evenly to the skin on the neck over a range of about 1.5 cm×1.5 cm. Before each application, the local part was cleaned by normal saline to remove the residual drug in the previous time. The continuous administration time was no longer than 10 weeks. When alopecia areata with an area size > 1 cm×1 cm was formed at the administration part, the administration was stopped, proving that a preparation model was successful. The mice in the normal control group were modeled by using blank ointment (vaseline ointment).
During the period from the first administration to the end of the last administration after the alopecia areata modeling was successful, the alopecia areata part of each mouse was photographed once every 3 days, the photographing distance, angle and magnification times were fixed, and the hair growth of the alopecic areas on the backs of the mice was recorded.
Visual quantification of the alopecia area images was performed using ImageJ software. The hair growth area (a) and hair loss area (b) were calculated. The hair growth rate was counted and analyzed: hair growth rate (%) = (a/b)* 100%. The newly grown hairs at the alopecia areata part of the mice in each group were scored based on the hair growth rate. Table 14 Scoring criteria of newly grown hairs

[4] = system: FITC-induced mouse atopic dermatitis model; assay: FITC-induced mouse atopic dermatitis model: histopathological scoring of ears; assay type: in vivo, Balb/c mice; details: pathological score (0-4), right ear, day 13, 20 mg/dose topical twice a day
Source text: On day 13, all the experimental animals were euthanized by CO2 and cervical dislocation, and then the right ears were collected and fixed in 10% formalin for histopathological analysis.
After the ear tissues were embedded with paraffin, each ear tissue was sliced into 3-5 µm sections. After HE staining, the sections were subjected to routine histopathological evaluation and ear tissue thickness measurement. Table 4 Histopathological scoring criteria

CN(c1ncnc2[nH]ccc12)[C@@H]1CCc2cc(C#N)nn2C1 [compound I]
Ear thickness Day 5 ([1]; 0.5% gel): 0.17 mm
Ear thickness Day 6 ([1]; 0.5% gel): 0.19 mm
Ear thickness Day 12 ([1]; 0.5% gel): 0.18 mm
Ear thickness Day 13 ([1]; 0.5% gel): 0.19 mm
ΔEar thickness Day 6-Day 5 ([1]; 0.5% gel): 0.0250 mm
ΔEar thickness Day 13-Day 5 ([1]; 0.5% gel): 0.0170 ± 0.0033 mm
ΔEar thickness Day 13-Day 5 ([1]; 0.5% gel, listed as compound 1): 0.0170 mm
Inhibitory rate% (Day 13) ([1]; 0.5% gel): 82.65%
Inhibitory rate% (Day 13) ([1]; 0.5% gel, listed as compound 1): 82.65%****
Ear thickness Day 5 ([1]; 1% gel): 0.17 mm
Ear thickness Day 6 ([1]; 1% gel): 0.20 mm
Ear thickness Day 12 ([1]; 1% gel): 0.18 mm
Ear thickness Day 13 ([1]; 1% gel): 0.19 mm
ΔEar thickness Day 6-Day 5 ([1]; 1% gel): 0.0280 mm
ΔEar thickness Day 13-Day 5 ([1]; 1% gel): 0.0250 ± 0.0043 mm and 0.0250 mm
Ear thickness Day 5 ([1]; 2% gel): 0.17 mm
Ear thickness Day 6 ([1]; 2% gel): 0.20 mm
Ear thickness Day 12 ([1]; 2% gel): 0.18 mm
Ear thickness Day 13 ([1]; 2% gel): 0.20 mm
ΔEar thickness Day 6-Day 5 ([1]; 2% gel): 0.0260 mm
ΔEar thickness Day 13-Day 5 ([1]; 2% gel): 0.0250 ± 0.0017 mm and 0.0250 mm
therapeutic effect (comparison) ([2]; 1% and 2% compound I gel, reduction of melanin-containing hair follicles in vitiligo model): equivalent to that of 1.5% ruxolitinib and superior to that of 0.03% tacrolimus
Number of melanin-containing hair follicles ([2]; 1% compound I gel): 30.3
Proportion of melanin-containing hair follicles (%) ([2]; 1% compound I gel): 29.7 ± 9.1% and 29.7%
Number of melanin-containing hair follicles ([2]; 1% compound I gel, listed as Compound I): 30.3 ± 14.8
number of the melanin-containing hair follicles, increase compared to the blank preparation group ([2]; 2% compound I gel): 37.9%
number of the melanin-containing hair follicles, times that of the model control group ([2]; 2% compound I gel): about 4 times
proportion of the melanin-containing hair follicles relative to the model control group ([2]; 2% compound I gel): about twice
Number of melanin-containing hair follicles ([2]; 2% compound I gel): 26.9*
Proportion of melanin-containing hair follicles (%) ([2]; 2% compound I gel): 30.6 ± 6.2% and 30.6%
Number of melanin-containing hair follicles ([2]; 2% compound I gel, listed as Compound I): 26.9 ± 7.4
therapeutic effect (comparison) ([2]; 2% compound I gel, proportion of melanin-containing hair follicles): equivalent to that of the ruxolitinib ointment
Hair growth rate (%) ([3]; 3 mg/kg oral by gavage twice a day for one month, Day 30): 71.62 ± 5.56%
amelioration effect (comparison) ([3]; 3 mg/kg oral, hair growth at alopecic area, Day 30): equivalent to that of the positive control drug at the dose of 10 mg/kg
Hair growth rate (%) ([3]; 10 mg/kg oral by gavage twice a day for one month, Day 30): 83.93 ± 5.58%
therapeutic effect (comparison) ([3]; mouse alopecia areata model, oral): superior to that of the positive drug baricitinib
Enlargement of follicular orifice ([4]; 1% gel): 1.50 ± 0.17 and 1.50
Enlargement of follicular orifice ([4]; 2% gel): 1.30 ± 0.26 and 1.30

— patent EP4778522A1, “USE OF PYRROLOPYRIMIDINE COMPOUND AND COMPOSITION THEREOF” (Guangzhou Joyo Pharmatech Co., Ltd., priority 2023, dated 2025)
